These results are taken from patent US5459270A, “Azacyclic compounds, processes for their preparation and pharmaceutical compositions containing them” (Merck Sharp & Dohme Limited, priority 1991, dated 1995).

Where a name gives a salt, the structure may show the parent alone. Where only a bound is given, the exact number is not on record here.

human neurokinin-1-receptor (NK1R), sequence (P25103 whole entry): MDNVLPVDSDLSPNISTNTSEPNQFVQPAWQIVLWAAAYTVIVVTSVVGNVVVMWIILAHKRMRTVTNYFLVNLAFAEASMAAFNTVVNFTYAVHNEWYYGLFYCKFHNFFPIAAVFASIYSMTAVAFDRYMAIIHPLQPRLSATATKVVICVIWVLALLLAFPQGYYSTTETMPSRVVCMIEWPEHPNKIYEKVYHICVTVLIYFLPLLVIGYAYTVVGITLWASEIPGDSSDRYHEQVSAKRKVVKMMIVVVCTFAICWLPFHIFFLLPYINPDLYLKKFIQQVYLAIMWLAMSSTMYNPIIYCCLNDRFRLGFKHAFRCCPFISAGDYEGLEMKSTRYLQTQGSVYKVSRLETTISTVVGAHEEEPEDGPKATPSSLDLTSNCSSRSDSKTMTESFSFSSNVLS

The first test deals with human neurokinin-1-receptor (NK1R) (Homo sapiens, UniProt P25103). Briefly: biochemical. It counts as binding. Particulars: IC50 @ NKIR, displacement of 125I-substance P; human NK1R in COS or CHO cells. The protocol:
To express the cloned human neurokinin-1-receptor (NK1R) transiently in COS, the cDNA for the human NK1R was cloned into the expression vector pCDM9 which was derived from pCDM8 (INVITROGEN) by inserting the ampicillin resistance gene (nucleotide 1973 to 2964 from BLUESCRIPT SK+ (trademark, […], La Jolla, Calif., USA)) into the Sac II site. Transfection of 20 ug of the plasmid DNA into 10 million COS cells was achieved by electroporation in 800 μl of transfection buffer (135 mM NaCl, 1.2 mM CaCl2, 1.2 mM MgCl2, 2.4 mM K2 HPO4, 0.6 mM KH2 PO4, 10 mM glucose, 10 mM N-2-hydroxyethyl-piperazine-N'-2-ethane sulphonic acid (HEPES) pH 7.4) at 260 V and 950 μF using the IBI GENEZAPPER (trademark IBI, New Haven, Conn., USA). The cells were incubated in 10% fetal calf serum, 2 mM glutamine, 100 U/ml penicillin-streptomycin, and 90% DMEM media (GIBCO, Grand Island, N.Y., USA) in 5% CO2 at 37° C. for three days before the binding assay.
To establish a stable cell line expressing cloned human NK1R, the cDNA was subcloned into the vector pRcCMV (INVITROGEN). Transfection of 20 μg of the plasmid DNA into CHO cells was achieved by electroporation in 800 μl of transfection buffer supplemented with 0.625 mg/ml Herring sperm DNA at 300 V and 950 μF using the IBI GENEZAPPER (IBI). The transfected cells were incubated in CHO media [10% fetal calf serum, 100 U/ml penicillin-streptomycin, 2 mM glutamine, 1/500 hypoxanthine-thymidine (ATCC), 90% IMDM media (JRH BIOSCIENCES, Lenexa, Kans., USA), 0.7 mg/ml G418 (GIBCO)] in 5% CO2 at 37° C. until colonies were visible. Each colony was separated and propagated. The cell clone with the highest number of human NK1R was selected for subsequent applications such as drug screening.
The binding assay of human NK1R expressed in either COS or CHO cells is based on the use of ^125 I-substance P (^125 I-SP, from DU PONT, Boston, Mass.) as a radioactively labeled ligand which competes with unlabeled substance P or any other ligand for binding to the human NK1R. […] The tubes were incubated at 4° C. or at room temperature for 1 hour with gentle shaking. The bound radioactivity was separated from unbound radioactivity by GF/C filter (BRANDEL, Gaithersburg, Md.) which was pre-wetted with 0.1% polyethylenimine. The filter was washed with 3 ml of wash buffer (50 mM Tris pH 7.5, 5 mM MnCl2, 50 mM NaCl) three times and its radioactivity was determined by gamma counter.
(Loss of bound radioactivity is the signal in a displacement assay; it reports binding, not function.)
By IC50 is commonly meant the concentration that gives 50% inhibition. On to `Cc1cc(CO[C@H]2CCCN(C(=O)OC(C)(C)C)[C@H]2c2ccccc2)cc([Si](C)(C)C)c1` [Example 33], for which the IC50 was above 300 nM. `Cc1cc(CO[C@H]2CCCN[C@H]2c2ccccc2)cc([Si](C)(C)C)c1` [Example 44, cis-3-((3-methyl-5-trimethylsilyl)benzyloxy)-2-phenyl piperidine] showed an IC50 of 0.3 nM.

The same test, now with this note: displacement of 125I-substance P; human NK1R in COS or CHO cells; read-out: IC50 @ NKIR.
For `FC(F)(F)c1cc(CO[C@H]2CCCN[C@H]2c2ccccc2)cc(C(F)(F)F)c1` [Example 5, (+)-cis-3((3,5-Bis(trifluoromethyl)phenyl)methyloxy)-2-phenylpiperidine hydrochloride salt], the IC50 worked out at 1 nM.

As to `CN1CCC[C@H](OCc2cc(C(F)(F)F)cc(C(F)(F)F)c2)[C@@H]1c1ccccc1` [Example 10, (+)-cis-3-((3,5-Bis(trifluoromethyl)phenyl)methyloxy)-1-methyl-2-phenylpiperidine], the IC50 worked out at 20 nM.

For `FC(F)(F)c1cc(CO[C@H]2CCCN[C@H]2c2ccccc2)cc(C(F)(F)F)c1` [Example 11, (-)-cis-3-((3,5-Bis(trifluoromethyl)phenyl)methyloxy)-2-phenyl piperidine hydrochloride salt], the IC50 stood at 350 nM. Regarding `C[N+]1(C)CCC[C@H](OCc2cc(C(F)(F)F)cc(C(F)(F)F)c2)[C@@H]1c1ccccc1` [Example 14, (2S,3S)-3-((3,5-Bis(trifluoromethyl)phenyl)methyloxy)-1,1-dimethyl2-phenylpiperidinium iodide], the IC50 amounted to 100 nM. Regarding `O=CN1CCC[C@H](OCc2cc(C(F)(F)F)cc(C(F)(F)F)c2)[C@@H]1c1ccccc1` [Example 16, (2S,3S)-1-Formyl-3-((3,5-bis(trifluoromethyl)phenyl)methyloxy)-2-phenyl piperidine], the IC50 was found to be 80 nM. `CC1CC[C@H](OCc2cc(C(F)(F)F)cc(C(F)(F)F)c2)[C@H](c2ccccc2)N1` (stereo partly drawn) [Example 20, cis-3-(3,5-Bis(trifluoromethyl)phenyl)methyloxy-6-methyl-2-phenyl piperidinium hydrochloride]: the 50% inhibitory concentration (IC50) came to 2 nM. As for `Cc1cc(I)cc(CO[C@H]2CCCN[C@H]2c2ccccc2)c1` [Example 36], the half-maximal inhibitory concentration (IC50) came to 0.5 nM. As to `CC1(OCc2cc(C(F)(F)F)cc(C(F)(F)F)c2)CCCNC1c1ccccc1` (centres unmarked) [Example 48, 3-((3,5-Bis(trifluoromethyl)phenyl)methyloxy)-3-methyl-2-phenylpiperidine oxalate salt], the IC50 was found to be 45 nM. In the case of `OCC1CC[C@H](OCc2cc(C(F)(F)F)cc(C(F)(F)F)c2)[C@H](c2ccccc2)N1` (some centres unmarked) [Example 55], the IC50 amounted to 2 nM. For the molecule `CC(C)(C)NC(=O)CN1CCC[C@H](OCc2cc(C(F)(F)F)cc(C(F)(F)F)c2)[C@@H]1c1ccccc1` [Example 56, (2S,3S)-3-((3,5-Bis(trifluoromethyl)phenyl)methyloxy-1-((N-t-butyl)carboxamidomethyl)-2-phenylpiperidinium hydrochloride], the IC50 is 25 nM. As for `O=C(CN1CCC[C@H](OCc2cc(C(F)(F)F)cc(C(F)(F)F)c2)[C@@H]1c1ccccc1)NC1CC1` [Example 57, (2S,3S)-3-((3,5-Bis(trifluoromethyl)phenyl)methyloxy)-1-((N-cyclopropyl)-2-phenylpiperidinium hydrochloride], the IC50 is 2.5 nM. As to “cis-3-((3,5-Bis(trifluoromethyl)phenyl)methyloxy-1-(N-benzylcarboxamido)methyl-2-phenyl piperidinium hydrochloride [Example 49]”, the IC50 was 20 nM.
